Laboratory results published in PubChem BioAssay AID2060611 (Molecular Pharmacology Branch, DTP, NCI, 2025).

Test system: 628569-122-R-J1-PDC complex spheroid viability
Test: Anticancer human tumor 628569-122-R-J1-PDC patient-derived head and neck squamous carcinoma cell line growth inhibition [CLK]
Conditions: for IC50: curve of first compound; for viability, T/C: stronger effect = lower value
How it was run: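 Multi-cell-type spheroids combined patient-derived tumor cells with HUVEC endothelial cells and human mesenchymal stem cells. Paired agents were dosed in half-log steps down from about clinical Cmax, or from 10 microM where Cmax was unknown.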
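Note: spheroids exposed to agents for seven days before readout.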
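Throughout, for viability, T/C: 100% = DMSO vehicle control viability.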

## CC(CO)NC(=O)c1cc(-c2ccc(Cl)cc2)nn(-c2cnn(C)c2)c1=O (configuration not stated) + CNC(=O)c1ccc(Nc2nc(OC3CCCC3)c3c(-c4ccc5nc(C)oc5c4)c[nH]c3n2)c(OC)c1
Second compound 0.0316 µM
  IC50: > 10 µM
Second compound 0.1 µM
  IC50: > 10 µM
Second compound 0.316 µM
  IC50: > 10 µM
Second compound 1 µM
  IC50: > 10 µM
Second compound 3.16 µM
  IC50: > 10 µM
Second compound 10 µM
  IC50: > 10 µM
Second compound 0.0316 µM, first compound 0.0316 µM
  viability, T/C: 135%
Second compound 0.0316 µM, first compound 0.1 µM
  viability, T/C: 176%
Second compound 0.0316 µM, first compound 0.316 µM
  viability, T/C: 214%
Second compound 0.0316 µM, first compound 1 µM
  viability, T/C: 189%
Second compound 0.0316 µM, first compound 3.16 µM
  viability, T/C: 192%
Second compound 0.0316 µM, first compound 10 µM
  viability, T/C: 169%
Second compound 0.1 µM, first compound 0.0316 µM
  viability, T/C: 91.4%
Second compound 0.1 µM, first compound 0.1 µM
  viability, T/C: 87.9%
Second compound 0.1 µM, first compound 0.316 µM
  viability, T/C: 100%
Second compound 0.1 µM, first compound 1 µM
  viability, T/C: 125%
Second compound 0.1 µM, first compound 3.16 µM
  viability, T/C: 138%
Second compound 0.1 µM, first compound 10 µM
  viability, T/C: 124%
Second compound 0.316 µM, first compound 0.0316 µM
  viability, T/C: 66.2%
Second compound 0.316 µM, first compound 0.1 µM
  viability, T/C: 82.6%
Second compound 0.316 µM, first compound 0.316 µM
  viability, T/C: 100%
Second compound 0.316 µM, first compound 1 µM
  viability, T/C: 104%
Second compound 0.316 µM, first compound 3.16 µM
  viability, T/C: 150%
Second compound 0.316 µM, first compound 10 µM
  viability, T/C: 97.4%
Second compound 1 µM, first compound 0.0316 µM
  viability, T/C: 64.7%
Second compound 1 µM, first compound 0.1 µM
  viability, T/C: 68.7%
Second compound 1 µM, first compound 0.316 µM
  viability, T/C: 79.4%
Second compound 1 µM, first compound 1 µM
  viability, T/C: 89.6%
Second compound 1 µM, first compound 3.16 µM
  viability, T/C: 84.9%
Second compound 1 µM, first compound 10 µM
  viability, T/C: 81.6%
Second compound 3.16 µM, first compound 0.0316 µM
  viability, T/C: 70.8%
Second compound 3.16 µM, first compound 0.1 µM
  viability, T/C: 66.2%
Second compound 3.16 µM, first compound 0.316 µM
  viability, T/C: 81%
Second compound 3.16 µM, first compound 1 µM
  viability, T/C: 77.6%
Second compound 3.16 µM, first compound 3.16 µM
  viability, T/C: 90%
Second compound 3.16 µM, first compound 10 µM
  viability, T/C: 82.4%
Second compound 10 µM, first compound 0.0316 µM
  viability, T/C: 70%
Second compound 10 µM, first compound 0.1 µM
  viability, T/C: 59.4%
Second compound 10 µM, first compound 0.316 µM
  viability, T/C: 76.1%
Second compound 10 µM, first compound 1 µM
  viability, T/C: 93.1%
Second compound 10 µM, first compound 3.16 µM
  viability, T/C: 90.8%
Second compound 10 µM, first compound 10 µM
  viability, T/C: 79.3%
